Results from patent US5919934A, “Compounds, compositions, and methods for cancer imaging and therapy” (The George Washington University, priority 1997, dated 1999).
Like-named read-outs stand apart in the source and are kept apart here.

Key:
[1] = tested on: sigma receptors; assay type: binding, human; conditions: T47D cells; for IC50: 37° C., 1 hr, against [Tc-99m]EN6, read-out: IC50 for inhibition of binding of [Tc-99m]EN6
Description: T47D human ductal breast carcinoma cells were purchased from ATCC, Rockville, Md. and cultured in serum supplemented medium DMEM containing 10% heat inactivated fetal bovine serum (GIBCO) at 37° C. The cells were adherent and split weekly in a 1:20 ratio using trypsin/EDTA (GIBCO). The cells were then transferred to 24 well plates and allowed to be adherent and confluent (about 0.5 million cells) or the cells were grown in T75 cell culture flasks and were detached when they were confluent using trypsin/EDTA (0.025%) or scraped with a cell scraper in DMEM.
Competition binding studies in human ductal breast cancer cells (T47D) were performed as follows. T47D cells were cultured in serum supplemented medium (RPMI-1640) containing 10% heat inactivated fetal bovine serum (GIBCO) at 37° C. The cells were adherent and split weekly in a 1:20 ratio using trypsin/EDTA (GIBCO). The cells were scraped using a cell scraper from T75 culture flasks and centrifuged in a Sorvall 6000B centrifuge at a speed of 4000 rpm. The growth medium was removed and the cell pellet was resuspended in […] serum free media.
The affinity of compounds for sites labeled by [Tc-99m]EN6 in human breast cancer cells was determined by heterologous in-vitro competitive binding assays in whole cells. The following method was used: A small aliquot of the cell suspension (100 μL) was incubated with [Tc-99m]EN6 and varying concentrations to (10^-4 to 10^-12 M) of arylethylenediamines keeping a total volume 1.0 mL constant. The cells were incubated at 37° C. for 1 hr and subsequently filtered through a Brandel Cell harvester (Brandel, Gaithersburg, Md.) and washed with de-ionized cold water. The radioactivity associated with the cells on filters was counted on a Beckman (DP 5500) Gamma Counter.
The data was analyzed with the iterative nonlinear least square curve fitting program GraphPAD Inplot (Graph PAD Software, San Diego, Calif.). The Cheng-Prussoff equation was then used to convert IC50 values to apparent K1 values.

[2] = target: T1, sigma-1 sites (Cavia porcellus, UniProt Q60492); assay: Sigma-1 binding in guinea pig brain against [^3 H]-(+)-pentazocine
T1 construct: sigma-1 sites in guinea pig brain; from tissue; host or cells: guinea pig brain
T1 sequence (Q60492 whole entry): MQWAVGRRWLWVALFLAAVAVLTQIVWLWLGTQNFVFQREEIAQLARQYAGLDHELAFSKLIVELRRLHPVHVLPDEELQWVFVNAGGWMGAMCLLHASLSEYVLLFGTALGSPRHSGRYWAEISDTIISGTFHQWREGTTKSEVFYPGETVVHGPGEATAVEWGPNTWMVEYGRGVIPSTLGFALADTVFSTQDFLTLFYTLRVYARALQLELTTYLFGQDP

[3] = target: T2, sigma-2 sites (Rattus norvegicus, UniProt Q5U3Y7); assay: Sigma-2 binding in rat liver membrane preparation against [^3 H]DTG in the presence of dextrallorphan
T2 construct: sigma-2 sites in rat liver membrane preparation; from tissue; host or cells: rat liver membranes
T2 sequence (Q5U3Y7 1-176): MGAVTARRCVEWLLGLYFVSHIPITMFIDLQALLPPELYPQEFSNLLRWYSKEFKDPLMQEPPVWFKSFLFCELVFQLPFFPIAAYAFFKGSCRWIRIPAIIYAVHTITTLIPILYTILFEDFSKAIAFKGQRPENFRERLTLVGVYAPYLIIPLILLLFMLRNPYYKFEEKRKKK

[4] = target: T3, sigma receptors (Homo sapiens, UniProt Q5BJF2); conditions: MCF-7 cells, Scatchard's analysis; cited from earlier work
T3 construct: MCF-7 breast tumor cells express sigma receptors; host or cells: MCF-7 cells
T3 sequence (Q5BJF2 whole entry): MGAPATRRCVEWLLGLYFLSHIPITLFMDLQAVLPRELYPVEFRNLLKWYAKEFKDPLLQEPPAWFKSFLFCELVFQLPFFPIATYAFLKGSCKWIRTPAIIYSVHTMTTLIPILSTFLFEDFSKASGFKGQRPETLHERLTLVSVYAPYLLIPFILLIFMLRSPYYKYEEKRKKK

[5] = tested on: sigma-1 and sigma-2 receptors; assay: In-vivo blocking with BD1008 in Sprague-Dawley rats; conditions: 2 micromol BD1008 co-injected
Description: Animal biodistribution and blocking studies were performed in rats as follows. Sprague Dawley rats (200-250 g) were anesthetized with ketamine/xylazine and injected intravenously with ^99m Tc-EN6, XXIII, ([…]) in 0.2 ml saline containing up to 20% ethanol solution. At 0.5, 1, and 4 hr post-injection blood samples were drawn by cardiac puncture and the rats were sacrificed thereafter by cardiectomy while under ketamine/xylazine anesthesia. The organs of interest were then excised, blotted with tissue paper, weighed and the radioactivity counted. The % injected dose/organ was determined by comparison of the tissue radioactivity with suitably diluted, known quantity aliquots of the injected dose. […] The animals were sacrificed at 4 hr post-injection and the organs of interest were removed and handled as above.
S. B. Hellewell, et al., Rat liver and kidney contain high densities of sigma-1 and sigma-2 receptors: characterization by ligand binding and photoaffinity labeling, Eur. J. Pharmacol.--Mol. Pharmacol. Sect. 268:9-18 (1994), all of which are hereby incorporated by reference.

[6] = tested on: sigma receptors; conditions: human breast and melanoma tumor cells; cited from earlier work
[7] = tested on: sigma receptor; conditions: guinea pig brain; cited from earlier work
[8] = tested on: non-melanoma cells in the liver and lung; conditions: cited from earlier work

In the case of `CN(CCc1ccc(I)cc1)CCN1CCCCC1` [IPEMP], the “inhibition of [Tc-99m]EN6 binding” value [1] is reported as “dose-dependent inhibition of binding”, the IC50 [1] is reported as 59 ± 5 nM and the Ki [2] is reported as 0.82 ± 0.13 nM. For the same compound, the Ki [3] was 15.2 ± 2.35 nM.
For `O=C(NC1CCN(Cc2ccccc2)CC1)c1ccc([125I])cc1` [4-[^125 I]-4-(N-benzylpiperidin-4-yl)-4-iodobenzamide], the receptors per cell [4] is given as “approximately a million”.
In the case of `CN(CCc1ccc(Cl)c(Cl)c1)CCN1CCCC1` [BD1008], the “inhibition of binding of ^99m Tc-complex in the kidneys” value ([5]; kidneys, 4 hr post-i.v. injection) is reported as “about 60%”, the “reduction of radioactivity in liver” value ([5]; liver, 4 hr post-injection) is reported as 34% and the “reduction of radioactivity in lungs” value ([5]; lungs, 4 hr post-injection) is reported as 48%. The “inhibition of [Tc-99m]EN6 binding” value [1] was “dose-dependent inhibition of binding”, the IC50 [1] was 47 ± 2 nM and the Ki ([3]; rat liver membrane, against [^3 H]DTG in the presence of dextrallorphan, read-out: Ki for sigma-2 sites) was 8.1 ± 2.2 nM.
In the case of `CN(CCc1ccc([125I])cc1)CCN1CCCCC1` [4-[^125 I]PEMP, [^125 I]N-[2-(4-iodophenyl)ethyl]-N-methyl-2-(1-piperidinyl)ethylamine], the “specific binding to the sigma receptors” value [6] is given as “very high specific binding” and the “inhibition binding isotherms” value [7] is given as “consistent with sigma receptor pharmacology”.
In the case of `CCN(CC)CCNC(=O)c1ccc(I)cc1` [IDAB, N-(diethylaminoethyl)4-iodobenzamide], the “uptake by non-melanoma cells” value [8] is given as “taken up in high concentrations”.
